# Assay type: physicochemical
# Conditions: polymerization initiator
# Description: The octanol/water partition coefficient is also expressed as LogPow and is an index representing hydrophobicity (solubility in lipid) of a chemical substance. The measurement method of the octanol/water partition coefficient is basically in accordance with OECD Test Guideline (“C (81) 30 appendix 1” determined by OECD Board of Directors) 107 or Japanese Industrial Standards Z7260-107 (2000), “Determination of partition coefficient (1-octanol/water)-Shake flask method”.
compound,measurement,value
CC(C)(C)OO [t-butyl hydroperoxide],octanol/water partition coefficient,−1.3
